Data as given in US7728146B2, “Enzyme inhibitors” (Probiodrug AG, priority 2006, dated 2010).
Read-outs that look alike come from different tables or passages of the source.

Tests used:
[1] = molecular target: DP IV (Homo sapiens, UniProt P27487); assay: DP IV inhibition IC50, parallel-synthesis compounds tested directly following synthesis (without purification); type: biochemical; design: IC50 DP4; other: tested directly following parallel synthesis, without purification; compounds of formula (Ib) from parallel synthesis, tested directly following synthesis; conditions: DP IV inhibition; compounds of formula (Ib) from parallel synthesis, tested directly following synthesis (without purification); read-out: IC50
Summary of the method: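 Porcine kidney or recombinant human enzyme (~40-50 μU/ml, HEPES buffer) hydrolysing Gly-Pro-pNA at room temperature, with 5% DMSO final; 11-point 1:2 dilutions from 100 μM final, in duplicate. pNA release read at 405 nm over ~18 min; slopes vs solvent control give residual activity, and IC50 comes from a 4-parameter fit.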

[2] = Bioavailability studies (pharmacokinetics after oral and intraarterial administration); type: in vivo, rat; conditions: for AUC / AUC(0-inf) / AUC(0-t) / Cmax / Tmax / AUC/Dose / half-life: male Wistar rats; for AUC: cross-over design; for AUC(0-inf) / AUC(0-t) / Cmax / Tmax / AUC/Dose / half-life: hydrochloride salt, Mean ± SD; for bioavailability: calculated from Mean AUC p.o. / Mean AUC i.a., read-out: F (bioavailability)
Experimental: Male Wistar rats (N=25; Crl:WI) with a body weight ranging between 300 and 350 g were purchased from Harlan Winkelmann GmbH (Borchen, Germany).
All studycompounds were used in the form of the hydrochloride salt.
One week after adaptation to the housing conditions, catheters were implanted into the carotid artery of the rats under general anaesthesia (i.p. injection of 0.25 mL/kg b.w. Rompun® [2%], BayerVital, Germany and 0.5 mL/kg b.w. Ketamin 10, Atarost GmbH & Co., Twistringen, Germany). The animals were allowed to recover for one week. The catheters were flushed with heparin-saline (100 IU/mL) three times per week.
After overnight fast, the inhibitors were administered the oral route via a feeding tube (15 g, 75 mm; Fine Science Tools, Heidelberg, Germany) and the intraarterial route via the arterial catheter. In case of intraarterial administration, the catheter was immediately flushed with 30 μL saline.
The animals were treated by a single oral dose of 3 mg/kg (5 mL/kg b.w.; treatment A) followed by a wash-out period of at least 3 days before intraarterial administration of 3 mg/kg (2 mL/kg b.w.; treatment B). The compounds were dissolved in saline to a final concentration adequate for an application of 3 mg/kg b.w.
Heparinized blood samples of 170 μL were collected in ice cooled sample tubes at −5, 0 (before medication) and at 5, 15, 30, 45, 60, 120, 240, 360 and 480 min. Blood samples in sample tubes were put shortly on ice and centrifuged thereafter (12,000 rpm for 2 min).
Plasma levels of the DP IV inhibitors were determined by measurement of plasma DP IV activity under standardized conditions using Gly-Pro-pNA as substrate. Plasma levels were calculated from the degree of inhibition using the known inhibition constants and the equation for competitive inhibition.
For determination of plasma DP IV activity, 50 μL sample in an appropriate dilution were incubated with 100 μL Hepes buffer (0.102 M, pH 7.6, I=0.319 M by KCl) and 50 μL water in a 96 well plate. Reaction was started by addition of 50 μL of a 2 mM Gly-Pro-pNA solution. Release of pNA was monitored for 20 min at 30° C. and 405 nm using a GeniousPro plate reader (Tecan). DP IV activity (deltaAbsorbtion/min) was calculated by linear regression of the time response curve. From this activity the concentration of the inhibitor was calculated using the following equation derived from the inhibitor equation for competitive inhibition.
Pharmacokinetic analyses (parameters of the individual PK profiles) and descriptive statistics were carried out using WinNonlin (Version 4.0.1, Professional). Based on plasma concentration data of inhibitors, the following model-independent pharmacokinetic variables were determined:
AUC(0-inf), AUC(0-t), Cmax, tmax, terminal half-life (t1/2) and bioavailability (F).
F (in %) was calculated from the ratio of observed AUC upon oral route of administration to the AUC upon intraarterial administration.

[3] = molecular target: dipeptidyl peptidase (DP IV) (UniProt P27487); assay: Determination of IC50 against DP IV (hydrolysis of Gly-Pro-pNA); type: biochemical, porcine kidney or recombinant human; conditions: compounds obtained by preparative synthesis
Summary of the method: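 Porcine kidney or recombinant human DP IV (about 40–50 μU/ml) in HEPES pH 7.6 (I=0.32) with Gly-Pro-pNA at room temperature, 5% DMSO, 11 twofold dilutions from 100 μM final. pNA release at 405 nm over ~18 min; slopes give residual activity versus solvent, IC50 by 4-parameter fit.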

[4] = molecular target: DP9 (Homo sapiens, UniProt Q86TI2); assay: DP9 assay; type: biochemical; conditions: for Selectivity DP9(IC50)/DPIV(Ki): ratio IC50 DP9 / Ki DP IV
Sequence of DP9 (Q86TI2 whole entry, species assumed): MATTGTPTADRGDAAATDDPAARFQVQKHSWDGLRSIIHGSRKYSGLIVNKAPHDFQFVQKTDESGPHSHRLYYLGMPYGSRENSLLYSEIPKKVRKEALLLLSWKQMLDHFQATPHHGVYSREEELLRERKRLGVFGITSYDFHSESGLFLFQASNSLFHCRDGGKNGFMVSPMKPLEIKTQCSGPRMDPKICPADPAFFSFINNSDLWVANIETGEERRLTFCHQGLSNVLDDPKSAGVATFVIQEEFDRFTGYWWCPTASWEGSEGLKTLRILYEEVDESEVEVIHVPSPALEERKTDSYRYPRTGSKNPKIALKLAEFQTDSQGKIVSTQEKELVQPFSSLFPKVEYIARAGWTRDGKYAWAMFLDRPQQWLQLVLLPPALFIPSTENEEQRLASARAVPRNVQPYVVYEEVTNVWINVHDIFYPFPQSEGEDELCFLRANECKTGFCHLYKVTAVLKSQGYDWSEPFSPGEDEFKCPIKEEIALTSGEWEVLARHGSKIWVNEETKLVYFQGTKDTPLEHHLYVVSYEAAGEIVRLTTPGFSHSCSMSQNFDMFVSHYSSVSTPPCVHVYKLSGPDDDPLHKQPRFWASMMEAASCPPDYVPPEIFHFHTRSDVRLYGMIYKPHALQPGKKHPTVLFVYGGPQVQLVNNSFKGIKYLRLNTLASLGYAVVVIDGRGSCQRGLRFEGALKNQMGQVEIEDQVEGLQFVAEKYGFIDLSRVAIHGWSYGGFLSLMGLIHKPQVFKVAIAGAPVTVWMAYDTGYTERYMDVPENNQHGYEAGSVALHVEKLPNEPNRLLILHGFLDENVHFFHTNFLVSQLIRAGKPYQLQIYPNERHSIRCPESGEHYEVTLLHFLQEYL
Experimental: Determination of IC50 values for DPII and DP9 are done similarly as described for DP IV.
For DP9 Gly Pro-AMC is used as substrate in a final concentration of 0.25 mM.

[5] = Wistar (Crl:WI), rat, plasma, po, 3 mg/kg p.o., read-out: Mean AUC p.o.
[6] = Wistar (Crl:WI), rat, plasma, 3 mg/kg i.a., read-out: Mean AUC i.a.
[7] = Wistar (Crl:WI), rat, plasma, intraarterial 3 mg/kg, N = 4-6
[8] = Wistar (Crl:WI), rat, plasma, oral 3 mg/kg, N = 5
[9] = male, Wistar (Crl:WI), rat, plasma, 3 mg/kg, intraarterial 3 mg/kg, N = 4-6, read-out: Half-life (converted)
[10] = male, Wistar (Crl:WI), rat, plasma, po, 3 mg/kg, oral 3 mg/kg, N = 5, read-out: Half-life (converted)
[11] = male, Wistar (Crl:WI), rat, plasma, po, 3 mg/kg

Row | SMILES | IC50 [1] [nM] | AUC [2, 5] [ng·h/mL] | AUC [2, 6] [ng·h/mL] | AUC(0-inf) [2, 7] [ng·h/mL] | AUC(0-t) [2, 7] [ng·h/mL] | Cmax [2, 7] [ng/mL] | AUC(0-inf) [2, 8] [ng·h/mL] | AUC(0-t) [2, 8] [ng·h/mL] | Cmax [2, 8] [ng/mL] | Tmax [2, 8] [h] | AUC/Dose ([2]; intraarterial 3 mg/kg, N = 4-6) [kg·µg·h/mL/mg] | AUC/Dose ([2]; oral 3 mg/kg, N = 5) [kg·µg·h/mL/mg] | half-life [2, 9] [h] | half-life [2, 10] [h] | bioavailability [2, 11] [%] | IC50 [3] [nM] | Selectivity DP9(IC50)/DPIV(Ki) [4] | half-life ([2]; intraarterial 3 mg/kg, N = 4-6) [h] | Ki [4] [nM] | IC50 ([4]; Gly Pro-AMC 0.25 mM) [nM]
1 | NCc1c(-c2ccc(Cl)cc2Cl)ncn1Cc1ccccc1 [Example 24b, (1-benzyl-4-(2,4-dichlorophenyl)-1H-imidazol-5-yl)methanamine] | 900 | 390 | 510 | 640 ± 205 | 510 ± 151 | 440 ± 73 | 650 ± 314 | 390 ± 149 | 130 ± 36 | 0.75 ± 0.177 | 0.18 ± 0.093 | 0.22 ± 0.105 | 2.94 ± 1.39 | 4.83 ± 4.08 | 76 | 123 | 25,527 | – | – | –
2 | NCc1c(-c2ccc(Cl)cc2Cl)ncn1Cc1ccsc1 [Example 130b, (4-(2,4-dichlorophenyl)-1-((thiophen-3-yl)methyl)-1H-imidazol-5-yl)methanamine] | – | 1270 | 1680 | 2470 ± 1440 | 1680 ± 516 | 1160 ± 470 | 2330 ± 1180 | 1270 ± 618 | 300 | 0.55 ± 0.326 | – | 0.78 ± 0.394 | 5.5 | 5.49 ± 1.52 | 76 | 62 | 12,653 | 4.00 ± 2.308 | 21500 | 97300
3 | NCc1c(-c2ccc(Cl)cc2Cl)ncn1Cc1ccccn1 [Example 39b] | 4600 | 140 | 330 | 410 ± 191 | 330 ± 148 | 280 ± 51 | 290 ± 141 | 140 ± 75 | 80 | 0.4 ± 0.224 | – | 0.10 ± 0.047 | 1.6 | 3.18 ± 2.13 | 43 | 59 | 20,951 | 1.57 ± 1.138 | – | –
4 | NCc1c(-c2ccc(Cl)cc2Cl)ncn1Cc1cccnc1 [Example 121b, (4-(2,4-dichlorophenyl)-1-((pyridin-3-yl)methyl)-1H-imidazol-5-yl)methanamine] | 4600 | 230 | 440 | 630 ± 350 | 440 ± 215 | 400 ± 120 | 350 ± 207 | 230 ± 206 | 110 ± 51 | 0.45 ± 0.274 | 0.21 ± 0.115 | 0.12 ± 0.069 | 1.98 ± 0.994 | 3.26 ± 3.87 | 53 | 83 | 34,797 | – | – | –
